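Briefly, cells in 96-well plates were exposed to five compound concentrations for 48 h, and endpoints were estimated by linear interpolation. GI50 marks 50% less growth.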 Active and inactive are the calls of the source. Cut-off read from the data, not from the text of the source: active = GI50 up to about 1.1 µM and inactive = higher.
Experiments:
Assay in all cases: growth of human tumour cells (NCI), 48 h
[1] = tested on: DLD-1
[2] = tested on: RPMI-8226
[3] = tested on: CAKI-1
[4] = tested on: OVCAR-8
[5] = tested on: NCI-H23
[6] = tested on: RXF 393
[7] = tested on: NCI-H460
[8] = tested on: SF-539
[9] = tested on: HCT-116
[10] = tested on: SK-MEL-28
[11] = tested on: SW-620
[12] = tested on: A549
[13] = tested on: Malme-3M
[14] = tested on: UO-31
[15] = tested on: SK-MEL-5
[16] = tested on: SK-OV-3
[17] = tested on: TK-10
[18] = tested on: DMS-114
[19] = tested on: NCI-H226
[20] = tested on: HT-29
[21] = tested on: SF-268
[22] = tested on: SNB-75
[23] = tested on: KM12
[24] = tested on: A498
[25] = tested on: HOP-18
[26] = tested on: HCC 2998
[27] = tested on: M19-MEL
[28] = tested on: 786-0
[29] = tested on: XF498
[30] = tested on: RXF 631
[31] = tested on: OVCAR-4
[32] = tested on: COLO 205
[33] = tested on: LXFL 529
[34] = tested on: MOLT-4
[35] = tested on: SN12C
[36] = tested on: SNB-78
[37] = tested on: SR
[38] = tested on: OVCAR-3
[39] = tested on: HCT-15
[40] = tested on: NCI-H522
[41] = tested on: DMS-273
[42] = tested on: ACHN
[43] = tested on: KM-20L2
[44] = tested on: SNB-19
[45] = tested on: M14
[46] = tested on: UACC-257
[47] = tested on: SK-MEL-2
[48] = tested on: UACC-62
[49] = tested on: HOP-62
[50] = tested on: U-251
[51] = tested on: HL-60
[52] = tested on: HOP-92
[53] = tested on: IGROV-1
[54] = tested on: K562
[55] = tested on: OVCAR-5
[56] = tested on: EKVX
[57] = tested on: SF-295
[58] = tested on: DU-145
[59] = tested on: BT-549
[60] = tested on: PC-3
[61] = tested on: T47D
[62] = tested on: CCRF-CEM
[63] = tested on: MDA-MB-231
[64] = tested on: MCF7
[65] = tested on: Hs-578T
[66] = tested on: MDA-N
[67] = tested on: LOX IMVI

N#C/N=C(\N)NCCO was tested, and the GI50 [1] was > 100 µM (inactive), the GI50 [2] was > 100 µM (inactive) and the GI50 [3] was > 100 µM (inactive). For the same compound, the GI50 [4] was > 100 µM (inactive), the GI50 [5] was > 100 µM (inactive) and the GI50 [6] was 16.6 µM (inactive). For the same compound, the GI50 [7] was > 100 µM (inactive), the GI50 [8] was > 100 µM (inactive) and the GI50 [9] was > 100 µM (inactive). For the same compound, the GI50 [10] was > 100 µM (inactive), the GI50 [11] was 18.3 µM (inactive) and the GI50 [12] was > 100 µM (inactive). For the same compound, the GI50 [13] was > 100 µM (inactive), the GI50 [14] was > 100 µM (inactive) and the GI50 [15] was > 100 µM (inactive). For the same compound, the GI50 [16] was > 100 µM (inactive), the GI50 [17] was > 100 µM (inactive) and the GI50 [18] was 75.3 µM (inactive). The GI50 [19] was > 100 µM (inactive), the GI50 [20] was > 100 µM (inactive) and the GI50 [21] was > 100 µM (inactive). The GI50 [22] was > 100 µM (inactive), the GI50 [23] was > 100 µM (inactive) and the GI50 [24] was > 100 µM (inactive). For the same compound, the GI50 [25] was > 100 µM (inactive), the GI50 [26] was > 100 µM (inactive) and the GI50 [27] was 40.3 µM (inactive). The GI50 [28] was 38.1 µM (inactive), the GI50 [29] was > 100 µM (inactive) and the GI50 [30] was > 100 µM (inactive). The GI50 [31] was > 100 µM (inactive), the GI50 [32] was 52.2 µM (inactive) and the GI50 [33] was > 100 µM (inactive). The GI50 [34] was > 100 µM (inactive), the GI50 [35] was > 100 µM (inactive) and the GI50 [36] was > 100 µM (inactive). For the same compound, the GI50 [37] was 30.7 µM (inactive), the GI50 [38] was > 100 µM (inactive) and the GI50 [39] was 38.7 µM. The GI50 [40] was > 100 µM (inactive), the GI50 [41] was > 100 µM (inactive) and the GI50 [42] was > 100 µM (inactive). The GI50 [43] was > 100 µM (inactive), the GI50 [44] was > 100 µM (inactive) and the GI50 [45] was > 100 µM (inactive). The GI50 [46] was > 100 µM (inactive), the GI50 [47] was > 100 µM (inactive) and the GI50 [48] was > 100 µM (inactive). The GI50 [49] was > 100 µM (inactive), the GI50 [50] was 37.2 µM (inactive) and the GI50 [51] was > 100 µM (inactive). For the same compound, the GI50 [52] was > 100 µM (inactive), the GI50 [53] was > 100 µM (inactive) and the GI50 [54] was > 100 µM (inactive). For the same compound, the GI50 [55] was > 100 µM (inactive), the GI50 [56] was > 100 µM (inactive) and the GI50 [57] was > 100 µM (inactive).
Cc1ccc(OC(=O)N2C/C(=C\c3ccccc3)C(=O)/C(=C/c3ccccc3)C2)cc1 was tested, and the GI50 [1] was 6.84 µM (inactive), the GI50 [2] was 0.403 µM (active) and the GI50 [58] was > 100 µM (inactive). For the same compound, the GI50 [3] was 49.9 µM (inactive), the GI50 [59] was 29 µM (inactive) and the GI50 [4] was 19.6 µM (inactive). The GI50 [60] was 27.6 µM (inactive), the GI50 [5] was 26.4 µM (inactive) and the GI50 [6] was 20.1 µM (inactive). For the same compound, the GI50 [7] was 53 µM (inactive), the GI50 [8] was 26.4 µM (inactive) and the GI50 [9] was 2.13 µM (inactive). The GI50 [10] was 25.7 µM (inactive), the GI50 [11] was 4.47 µM (inactive) and the GI50 [12] was > 69.5 µM (inactive). For the same compound, the GI50 [61] was > 100 µM (inactive), the GI50 [13] was > 76 µM (inactive) and the GI50 [14] was 36.9 µM (inactive). For the same compound, the GI50 [15] was 20.6 µM (inactive), the GI50 [16] was 41.3 µM (inactive) and the GI50 [17] was 32.1 µM (inactive). The GI50 [18] was 15.1 µM (inactive), the GI50 [19] was 56.5 µM (inactive) and the GI50 [20] was 4.93 µM (inactive). For the same compound, the GI50 [21] was 34.1 µM (inactive), the GI50 [22] was 23 µM (inactive) and the GI50 [23] was 16.2 µM (inactive). The GI50 [62] was 3.2 µM (inactive), the GI50 [63] was 26.7 µM (inactive) and the GI50 [24] was > 66.5 µM (inactive). The GI50 [25] was > 46.2 µM (inactive), the GI50 [26] was 10 µM (inactive) and the GI50 [27] was 5.53 µM (inactive). The GI50 [28] was 17.1 µM (inactive), the GI50 [29] was 26.2 µM (inactive) and the GI50 [30] was 40.7 µM (inactive). For the same compound, the GI50 [31] was 23.5 µM (inactive), the GI50 [64] was 5.14 µM (inactive) and the GI50 [32] was > 68.7 µM (inactive). The GI50 [33] was 9.98 µM (inactive), the GI50 [34] was 4.07 µM (inactive) and the GI50 [35] was 24.8 µM (inactive). The GI50 [36] was 28.4 µM (inactive), the GI50 [37] was 3.43 µM (inactive) and the GI50 [38] was 25.6 µM (inactive). The GI50 [65] was 20.9 µM (inactive), the GI50 [66] was 4.02 µM (inactive) and the GI50 [39] was 26.3 µM. For the same compound, the GI50 [40] was 13 µM (inactive), the GI50 [41] was 4.83 µM (inactive) and the GI50 [42] was 26.7 µM (inactive). For the same compound, the GI50 [43] was 39.7 µM (inactive), the GI50 [44] was 43.5 µM (inactive) and the GI50 [45] was 8.79 µM (inactive). For the same compound, the GI50 [46] was 40.6 µM (inactive), the GI50 [47] was 42.6 µM (inactive) and the GI50 [48] was 23.5 µM (inactive). The GI50 [49] was 18.5 µM (inactive), the GI50 [50] was 9.25 µM (inactive) and the GI50 [51] was 3.84 µM (inactive). The GI50 [67] was 3.29 µM (inactive), the GI50 [52] was > 100 µM (inactive) and the GI50 [53] was 40.7 µM (inactive). The GI50 [54] was 3.94 µM (inactive), the GI50 [55] was 76 µM (inactive) and the GI50 [56] was > 100 µM (inactive). For the same compound, the GI50 [57] was 18.7 µM (inactive).
